Where “and” joins values, the source holds several entries; their conditions need not be identical. Identical values can stand only once. Like-named read-outs stand apart in the source and are kept apart here.
Tests used:
[1] = biological target: EGFR L858R/C797S Ba/F3 cells (Homo sapiens, UniProt P00533, C797S/L858R, cells depend on it); assay: Ba/F3 cell proliferation (Cell Titer Glo), EGFR L858R/C797S; type: cell-based, murine; settings: 72 hours
Text: (§1) The EGFR mutant L858R Ba/F3 cells have been previously described (Zhou, W., et al. Nature 462, 2009, 1070-1074). The EGFR C797S and C775S mutations were introduced via site directed mutagenesis using the Quick Change Site-Directed Mutagenesis kit into a vector containing EGFR L858R mutation (Stratagene; La Jolla, CA) according to the manufacturer's instructions. All constructs were confirmed by DNA sequencing. The constructs were then shuttled into the retroviral vector JP1540 by either using the Cre-recombination system (Agilent Technologies, Santa Clara, CA) or the In-fusion HD Cloning kit (Takara Bio USA, Inc.; Mountain view, CA). Ba/F3 cells were then infected with retrovirus per standard protocols, as described previously (Zhou, et al, Nature 2009). Stable clones were obtained by selection in puromycin (2 μg/ml). All BaF/3 mutant cells were maintained in RPMI 1640 (Cellgro; Mediatech Inc., Herndon, CA) supplemented with 10% FBS, 100 units/mL penicillin, 100 units/mL streptomycin.
(§2) Growth and inhibition of growth was assessed by the Cell Titer Glo assay (Promega, Madison, WI) and was performed according to the manufacturer's instructions. The Cell Titer Glo assay is a luminescence-based method used to determine the number of viable cells based on quantitation of the ATP present, which is directly proportional to the amount of metabolically active cells present. Ba/F3 cells of different EGFR genotypes were exposed to compounds for 72 hours and the number of cells used per experiment was determined empirically as has been previously established (Zhou, et al., Nature 2009). All experimental points were set up in triplicates in 384-well plates. […] The curves were fitted using a non-linear regression model with a sigmoidal dose response.
(§3) Ba/F3 cells assay data are provided below in Table 5 and Table 6. For inhibitory activity against EGFR mutants, the following designations are used: <0.1 μM=A, 0.1 μM˜0.5 μM=B, 0.5 μM˜2.5 μM=C, ≥2.5 μM=D

[2] = biological target: EGFR mutant L858R Ba/F3 cells (Homo sapiens, UniProt P00533, L858R, cells depend on it); assay: Ba/F3 cell proliferation (Cell Titer Glo), EGFR L858R; type: cell-based, murine; settings: 72 hours
Text: as §1, §2, §3

Sequence of EGFR L858R/C797S Ba/F3 cells (P00533 whole entry C797S/L858R, the tested form may be a part): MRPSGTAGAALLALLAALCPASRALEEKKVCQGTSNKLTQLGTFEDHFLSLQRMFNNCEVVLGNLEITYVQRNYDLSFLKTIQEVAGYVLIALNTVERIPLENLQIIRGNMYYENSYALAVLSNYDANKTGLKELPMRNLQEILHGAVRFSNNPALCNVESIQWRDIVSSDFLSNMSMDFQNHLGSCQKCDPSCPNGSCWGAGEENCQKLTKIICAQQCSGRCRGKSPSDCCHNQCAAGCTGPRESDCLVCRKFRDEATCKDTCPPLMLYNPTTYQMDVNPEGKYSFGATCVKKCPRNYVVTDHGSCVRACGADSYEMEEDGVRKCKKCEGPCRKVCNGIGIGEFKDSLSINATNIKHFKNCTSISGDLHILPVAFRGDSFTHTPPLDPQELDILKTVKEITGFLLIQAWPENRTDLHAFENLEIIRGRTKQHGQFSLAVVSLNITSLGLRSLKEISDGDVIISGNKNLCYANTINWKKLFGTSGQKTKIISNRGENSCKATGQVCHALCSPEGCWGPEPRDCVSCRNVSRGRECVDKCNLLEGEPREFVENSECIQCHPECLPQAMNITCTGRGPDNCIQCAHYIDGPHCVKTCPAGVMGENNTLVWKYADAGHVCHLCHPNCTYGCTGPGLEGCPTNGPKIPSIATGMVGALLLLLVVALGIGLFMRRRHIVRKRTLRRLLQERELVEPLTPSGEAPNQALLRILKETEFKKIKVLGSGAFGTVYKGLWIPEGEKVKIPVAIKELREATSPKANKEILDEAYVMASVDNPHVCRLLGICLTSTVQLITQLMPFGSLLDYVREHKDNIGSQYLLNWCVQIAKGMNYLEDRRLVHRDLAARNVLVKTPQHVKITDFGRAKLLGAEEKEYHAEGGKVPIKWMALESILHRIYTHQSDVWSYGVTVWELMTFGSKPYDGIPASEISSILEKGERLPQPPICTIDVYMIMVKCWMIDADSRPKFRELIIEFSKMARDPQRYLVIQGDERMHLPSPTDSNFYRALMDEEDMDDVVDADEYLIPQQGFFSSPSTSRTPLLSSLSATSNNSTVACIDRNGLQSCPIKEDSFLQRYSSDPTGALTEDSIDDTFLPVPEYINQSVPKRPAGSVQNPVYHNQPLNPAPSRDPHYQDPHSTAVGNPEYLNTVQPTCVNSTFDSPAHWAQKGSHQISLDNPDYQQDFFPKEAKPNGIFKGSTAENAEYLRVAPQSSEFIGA
Sequence of EGFR mutant L858R Ba/F3 cells (P00533 whole entry L858R): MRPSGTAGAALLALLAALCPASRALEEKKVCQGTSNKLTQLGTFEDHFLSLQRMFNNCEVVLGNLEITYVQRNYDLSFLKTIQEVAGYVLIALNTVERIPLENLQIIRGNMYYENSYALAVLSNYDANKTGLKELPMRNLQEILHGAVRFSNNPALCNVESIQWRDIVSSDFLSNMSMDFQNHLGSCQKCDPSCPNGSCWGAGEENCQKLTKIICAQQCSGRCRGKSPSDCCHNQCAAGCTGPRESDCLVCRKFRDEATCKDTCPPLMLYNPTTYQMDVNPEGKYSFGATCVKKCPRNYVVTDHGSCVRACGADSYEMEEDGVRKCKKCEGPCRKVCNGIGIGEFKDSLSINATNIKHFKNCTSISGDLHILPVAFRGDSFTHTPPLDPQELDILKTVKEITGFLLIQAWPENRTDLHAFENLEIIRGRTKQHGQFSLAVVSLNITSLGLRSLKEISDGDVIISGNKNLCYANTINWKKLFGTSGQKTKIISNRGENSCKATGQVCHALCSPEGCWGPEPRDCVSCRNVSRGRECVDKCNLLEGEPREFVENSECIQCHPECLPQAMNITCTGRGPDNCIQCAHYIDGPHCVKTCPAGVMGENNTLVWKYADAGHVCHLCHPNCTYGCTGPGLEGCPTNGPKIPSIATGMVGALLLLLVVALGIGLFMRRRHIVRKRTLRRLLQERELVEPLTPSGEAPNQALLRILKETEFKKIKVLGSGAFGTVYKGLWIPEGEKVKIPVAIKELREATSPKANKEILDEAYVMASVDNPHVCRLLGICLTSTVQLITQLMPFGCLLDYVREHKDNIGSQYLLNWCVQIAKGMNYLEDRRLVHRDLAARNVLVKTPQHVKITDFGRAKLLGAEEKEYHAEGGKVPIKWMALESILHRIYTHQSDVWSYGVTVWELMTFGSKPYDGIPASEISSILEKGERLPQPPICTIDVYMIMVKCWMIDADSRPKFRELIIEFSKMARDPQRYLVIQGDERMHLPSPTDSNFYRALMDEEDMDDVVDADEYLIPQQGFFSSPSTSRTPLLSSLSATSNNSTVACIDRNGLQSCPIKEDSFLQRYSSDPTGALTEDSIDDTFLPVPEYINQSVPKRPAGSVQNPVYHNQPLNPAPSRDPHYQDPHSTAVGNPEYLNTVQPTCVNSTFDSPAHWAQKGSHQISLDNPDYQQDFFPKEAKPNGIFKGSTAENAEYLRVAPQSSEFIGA

Row | SMILES | GI50 ([1]; Table 6) | GI50 ([2]; Table 6, read-out: L858R BaF3) | GI50 ([1]; Table 5) | GI50 ([2]; Table 5, read-out: L858R BaF3)
1 | C/C=C(\C#N)C(=O)N1CC[C@H](N2Cc3cnc(Nc4ccc(N5CCN(C)CC5)cc4)nc3N(C)C2=O)c2ccccc21 [Compound 101] | ≥ 2500 nM | ≥ 2500 nM |  | 
2 | C=CC(=O)N1CC2(CC(N3Cc4cnc(Nc5ccc(N6CCN(C)CC6)cc5)nc4N(C)C3=O)C2)C1 [Compound 053] | ≥ 2500 nM | ≥ 2500 nM |  | 
3 | C=CC(=O)Nc1cccc2[nH]cc(CN3Cc4cnc(Nc5ccc(N6CCN(C)CC6)cc5)nc4N(C)C3=O)c12 [Compound 050] | ≥ 2500 nM | ≥ 2500 nM |  | 
4 | CN1CCN(c2ccc(Nc3ncc4c(n3)N(C)C(=O)N([C@H]3CCN(C(=O)CC#N)c5ccccc53)C4)cc2)CC1 [Compound 096] | ≥ 2500 nM | ≥ 2500 nM |  | 
5 | C=CC(=O)Nc1cccc(CN2Cc3cnc(Nc4ccc(N5CCN(C)CC5)cc4)nc3N(C)C2=O)c1 [Compound 036] |  |  | ≥ 2500 nM | 500 to 2500 nM
6 | C=CC(=O)Nc1ccccc1CN1Cc2cnc(Nc3ccc(N4CCN(C)CC4)cc3)nc2N(C)C1=O [Compound 001, N-(2-((1-methyl-7-((4-(4-methylpiperazin-1-yl)phenyl)amino)-2-oxo-1,4-dihydropyrimido[4,5-d]pyrimidin-S(2H)-yl)methyl)phenyl)acrylamide] |  |  | 100 to 500 nM | 100 to 500 nM
7 | C=CC(=O)Nc1cn(C)nc1CN1Cc2cnc(Nc3ccc(N4CCN(C)CC4)cc3)nc2N(C)C1=O [Compound 046] | ≥ 2500 nM | ≥ 2500 nM |  | 
8 | C=CC(=O)N1CCC(N2Cc3cnc(Nc4ccc(N5CCN(C)CC5)cc4)nc3N(C)C2=O)CC12CCC2 (stereo not drawn) [Compound 089, 1-methyl-7-[4-(4-methylpiperazin-1-yl)anilino]-S-(5-prop-2-enoyl-5-azaspiro[3.5]nonan-8-yl)-4H-pyrimido[4,5-d]pyrimidin-2-one] | ≥ 2500 nM | ≥ 2500 nM |  | 
9 | C/C=C/C(=O)N1CC[C@H](N2Cc3cnc(Nc4ccc(N5CCN(C)CC5)cc4)nc3N(C)C2=O)c2ccccc21 [Compound 091] | 100 to 500 nM | 100 to 500 nM |  | 
10 | C=CC(=O)N1c2ccccc2C(N2Cc3cnc(Nc4ccc(N5CCN(C)CC5)cc4)nc3N(C)C2=O)CC1(C)C (stereo not shown) [Compound 107, 3-(1-acryloyl-2,2-dimethyl-1,2,3,4-tetrahydroquinolin-4-yl)-1-methyl-7-((4-(4-methylpiperazin-1-yl)phenyl)amino)-3,4-dihydropyrimido[4,5-d]pyrimidin-2(1H)-one] | ≥ 2500 nM | ≥ 2500 nM |  | 
11 | C=CC(=O)N1CC(N2Cc3cnc(Nc4ccc(N5CCN(C)CC5)cc4)nc3N(C)C2=O)c2ccccc21 (stereo not drawn) [Compound 047, 1-methyl-7-[4-(4-methylpiperazin-1-yl)anilino]-S-(1-prop-2-enoylindolin-3-yl)-4H-pyrimido[4,5-d]pyrimidin-2-one] | 100 to 500 nM | 100 to 500 nM |  | 
12 | C=CC(=O)N1CCC(N2Cc3cnc(Nc4cnn(CCN(C)C)c4)nc3N(C)C2=O)c2ccccc21 (stereo not shown) [Compound 062] | < 100 nM | < 100 nM |  | 
13 | C=CC(=O)N1CCC(N2Cc3cnc(Nc4ccc(N5CCN(C)CC5)cc4)nc3N(C)C2=O)C2(CCC2)C1 (stereo not shown) [Compound 094] | ≥ 2500 nM | ≥ 2500 nM |  | 
14 | C=CC(=O)N1CC[C@H](N2Cc3cnc(Nc4ccc(N5CCN(C)CC5)cc4)nc3N(C)C2=O)c2ccccc21 [Compound 048, 1-methyl-7-[4-(4-methylpiperazin-1-yl)anilino]-S-[(4S)-1-prop-2-enoyl-3,4-dihydro-2H-quinolin-4-yl]-4H-pyrimido[4,5-d]pyrimidin-2-one] | < 100 nM | < 100 nM |  | 
15 | C=CC(=O)N1CCC(N2Cc3cnc(Nc4ccc(N5CCN(C)CC5)cc4)nc3N(C)C2=O)c2cccc(F)c21 (stereo not shown) [Compound 099, 3-(8-fluoro-1-prop-2-enoyl-3,4-dihydro-2H-quinolin-4-yl)-1-methyl-7-[4-(4-methylpiperazin-1-yl)anilino]-4H-pyrimido[4,5-d]pyrimidin-2-one] | < 100 nM | < 100 nM |  | 
16 | C=CC(=O)N1CCC(N2Cc3cnc(Nc4ccc(N5CCN(C)CC5)cc4OC(F)(F)F)nc3N(C)C2=O)c2ccccc21 (stereo not shown) [Compound 087] | < 100 nM | < 100 nM |  | 
17 | C=CC(=O)N1CCC(N2Cc3cnc(Nc4ccc(N5CCN(C)CC5)cn4)cc3N(C)C2=O)c2ccccc21 (stereo not drawn) [Compound 086, 1-methyl-7-[[5-(4-methylpiperazin-1-yl)-2-pyridyl]amino]-S-(1-prop-2-enoyl-3,4-dihydro-2H-quinolin-4-yl)-4Hpyrido[4,3-d]pyrimidin-2-one] | < 100 nM | < 100 nM |  | 
18 | C=CC(=O)N1CCC(N2Cc3cnc(Nc4ccc5c(c4)CCN(C)C5)nc3N(C)C2=O)c2ccccc21 (stereo not shown) [Compound 080] | < 100 nM | < 100 nM |  | 
19 | C=CC(=O)N1CCC(N2Cc3nnc(Nc4ccc(N5CCN(C)CC5)cc4)cc3N(C)C2=O)c2ccccc21 (stereo not drawn) [Compound 092, 5-methyl-S-[4-(4-methylpiperazin-1-yl)anilino]-7-(1-prop-2-enoyl-3,4-dihydro-2H-quinolin-4-yl)-8H-pyrimido[5,4-c]pyridazin-6-one] | ≥ 2500 nM | ≥ 2500 nM |  | 

Results, then the compound that gave them:

Row | GI50 ([1]; Table 6) | GI50 ([2]; Table 6, read-out: L858R BaF3) | GI50 ([1]; Table 5) | GI50 ([2]; Table 5, read-out: L858R BaF3) | SMILES
20 | < 100 nM | < 100 nM |  |  | C=CC(=O)N1CCC(N2Cc3cnc(Nc4ccc(N(C)CCN(C)C)c(C(F)(F)F)c4)nc3N(C)C2=O)c2ccccc21 (stereo not shown) [Compound 076]
21 | < 100 nM | < 100 nM |  |  | C=CC(=O)N1CCC(N2Cc3cnc(Nc4ccc(N5CCN(C)C6(CC6)C5)cc4)nc3N(C)C2=O)c2ccccc21 (stereo not drawn) [Compound 085, 1-methyl-7-[4-(4-methyl-4,7-diazaspiro[2.5]octan-7-yl)anilino]-S-(1-prop-2-enoyl-3,4-dihydro-2H-quinolin-4-yl)-4H-pyrimido[4,5-d]pyrimidin-2-one]
22 | < 100 nM | < 100 nM |  |  | C=CC(=O)N1CCC(N2Cc3cnc(Nc4ccc(N5CCN(C)CC5)cn4)nc3N(C)C2=O)c2ccccc21 (stereo not shown) [Compound 069]
23 | < 100 nM | < 100 nM |  |  | C=C(F)C(=O)N1CC[C@H](N2Cc3cnc(Nc4cnn(CCO)c4)nc3N(C)C2=O)c2ccccc21 [Compound 093]
24 | < 100 nM | < 100 nM |  |  | C=CC(=O)N1CCC(N2Cc3cnc(Nc4ccc(OCCN5CCCC5)cc4)nc3N(C)C2=O)c2ccccc21 (stereo not shown) [Compound 068]
25 | < 100 nM | < 100 nM |  |  | C=CC(=O)N1CC[C@@H](N2Cc3cnc(Nc4ccc(N5CCN(C)CC5)cc4)nc3N(C)C2=O)c2ccccc21 [Compound 049, 1-methyl-7-[4-(4-methylpiperazin-1-yl)anilino]-S-[(4R)-1-prop-2-enoyl-3,4-dihydro-2H-quinolin-4-yl]-4H-pyrimido[4,5-d]pyrimidin-2-one]
26 | 100 to 500 nM | < 100 nM |  |  | C=CC(=O)N1CCC(N2Cc3cnc(Nc4ccc(N5CCN(C)CC5)c(-c5cnn(C)c5)c4)nc3N(C)C2=O)c2ccccc21 (stereo not drawn) [Compound 052, 1-methyl-7-[4-(4-methylpiperazin-1-yl)-S-(1-methylpyrazol-4-yl)anilino]-S-(1-prop-2-enoyl-3,4-dihydro-2H-quinolin-4-yl)-4H-pyrimido[4,5-d]pyrimidin-2-one]
27 | < 100 nM | < 100 nM |  |  | C=CC(=O)N1CCC(N2Cc3cnc(Nc4ccc(CN5CCN(C)CC5)cc4)nc3N(C)C2=O)c2ccccc21 (stereo not shown) [Compound 078]
28 | 100 to 500 nM | < 100 nM |  |  | [2H]C1(N2Cc3cnc(Nc4cnn(CCO)c4)nc3N(C3CC3)C2=O)CCN(C(=O)C(=C)F)c2ccccc21 (stereo not drawn) [Compound 113, 1-cyclopropyl-S-[4-deuterio-1-(2-fluoroprop-2-enoyl)-2,3-dihydroquinolin-4-yl]-7-[[1-(2-hydroxyethyl)pyrazol-4-yl]amino]-4H-pyrimido[4,5-d]pyrimidin-2-one]
29 | 100 to 500 nM and < 100 nM | < 100 nM |  |  | C=CC(=O)N1CCC(N2Cc3cnc(Nc4ccc(F)c(C#N)c4)nc3N(C)C2=O)c2ccccc21 (stereo not shown) [Compound 082]
30 | < 100 nM | < 100 nM |  |  | C=CC(=O)N1CCC(N2Cc3cnc(Nc4ccc(N5CCN(C)CC5)cc4)nc3N(C3CCCC3)C2=O)c2ccccc21 (stereo not drawn) [Compound 057, 1-cyclopentyl-7-[4-(4-methylpiperazin-1-yl)anilino]-S-(1-prop-2-enoyl-3,4-dihydro-2H-quinolin-4-yl)-4H-pyrimido[4,5-d]pyrimidin-2-one]
31 | < 100 nM | < 100 nM |  |  | C=CC(=O)N1CCC(N2Cc3cnc(Nc4ccc(N5CCN(C)CC5)c(F)c4)nc3N(C)C2=O)c2ccccc21 (stereo not shown) [Compound 055]
32 | < 100 nM | < 100 nM |  |  | C=CC(=O)N1CCC(N2Cc3cnc(Nc4ccc(C5CCN(C)CC5)cc4)nc3N(C)C2=O)c2ccccc21 (stereo not shown) [Compound 066]

Source: patent US20240352021A1 (DANA-FARBER CANCER INSTITUTE, INC., priority 2021, published 2024)
